# Results from patent publication US8535897B2, “Assays for non-apoptotic cell death and uses thereof” (The Trustees of Columbia University in the City of New York, priority 2006, dated 2013).
# Tests used:
# Assay type in all cases: cell-based, human
# [1] = tested on: PARP1; test: PARP1 cleavage, western blot; settings: BJ-TERT/LT/ST/RAS^V12; staurosporine 1 μM 6 h, camptothecin 1 μM 18 h, erastin 20 μg/mL
# Description: BJ-TERT/LT/ST/RAS^V12 tumor cells were seeded in six-well dishes, incubated overnight at 37° C. with 5% CO2 and were treated with nothing (NT), staurosporine (ST, 1 μM) for 6 h, camptothecin (C, 1 μM) for 18 h, or erastin (20 μg/mL) for the indicated time, lysed and analyzed by western blot with an anti-PARP1 antibody. A relatively high concentration of erastin was used to ensure loss of PARP cleavage was not due to a concentration-dependent effect.
# For western blots, medium was aspirated, and each dish was washed twice with 10 mL of ice-cold PBS. Cells were lysed with 200 μL of buffer (50 mM HEPES, 40 mM NaCl, 2 mM EDTA, 0.5% Triton-X, 1.5 mM sodium orthovanadate, 50 mM NaF, 10 mM Na Pyrophosphate, 10 mM Na B-glycerophosphate and protease inhibitor tablet, pH 7.4). […]
# [2] = tested on: BJ-TERT/LT/ST/RASV12 cells; test: Nuclear morphology, fluorescence microscopy (Hoechst 33342)
# Description: DNA was stained used Hoechst 33342.
# To characterize the type of cell death induced by erastin, the effect of erastin was tested alongside camptothecin and staurosporine, which induce apoptotic cell death^39. Apoptosis is characterized by alterations in nuclear morphology, including pyknosis, karyorhexis and margination of chromatin^93. Nuclear morphology of camptothecin-treated and erastin-treated BJ-TERT/LT/ST/RAS^V12 cells was monitored using fluorescence microscopy. […] Apoptosis-inducing compounds (staurosporine and/or camptothecin) were tested alongside erastin in all of these assays to confirm the functionality of the assay. […] Therefore, in certain aspects the invention provides a genotype-selective anti-tumor agent which induces cell death via a non-apoptotic mechanism of oxidative cell death.
# [3] = tested on: BJ-TERT/LT/ST/RASV12 cells; test: Annexin V staining; settings: erastin 9 μM; camptothecin 1 μM
# Description: The percentage of cells in the indicated M1 region were 6%, 6%, and 38% in untreated, erastin-treated (9 μM), and camptothecin-treated (1 μM), respectively.
# [4] = tested on: BJELR cells; test: Sensitivity after upregulation of VDACs by nucleofection
# Description: Quantitative western blot showing the ratio of VDACs (top band, green) to eif4E (bottom band, red) (e). […] Green, untransfected BJELR cells; blue, mock nucleofected BJELR cells; red, VDAC2/3-nucleofected BJELR cells (f).
# In certain aspects, the invention provides that erastin acts by a gain-of-function mechanism and that cells with more VDAC proteins are more sensitive to erastin. A gain-of-function mechanism operates in cells which have increased levels of topoisomerase I and are thus more sensitive to camptothecin^149. […] In other embodiments, cell lines can be stably transfected with vectors expressing VDAC1, 2, and/or 3. Thus, increased VDAC expression leads to erastin sensitivity which is consistent with a gain of function mechanism. Furthermore, a knockdown of VDACs causes erastin resistance.
# [5] = tested on: cytochrome c; test: Cytochrome c release from mitochondria; settings: BJ-TERT/LT/ST/RAS^V12; staurosporine 1 μM or erastin 20 μg/mL for 6 h
# Description: BJ-TERT/LT/ST/RAS^V12 cells were seeded in polystyrene 100×20 mm dishes in 10 ml media. After overnight incubation at 37° C. with 5% CO2, the cells were treated with nothing (NT), staurosporine (ST, 1 μM) or erastin (20 μg/mL) for 6 h, washed with 10 mL ice-cold PBS and lysed by passage through a 25-gauge needle (five strokes). Cell lysates were centrifuged at 1850 rpm for 5 min at 4° C. to remove the nuclear fraction. Mitochondria were removed from the soluble cytosolic fraction by pelleting at 10,000 rpm. Supernatant and mitochondrial pellets were solubilized in SDS-PAGE loading buffer and analyzed by western blot using anti-cytochrome c and pan-VDAC antibodies and IR-dye-linked secondary antibodies. […] Fluorescence was detected on a LI-COR Odyssey infrared scanner.
# (a) BJ-TERT/LT/ST/RAS^V12 cells were treated with 9 μM erastin A1 for the indicated length of time, and the number of viable cells determined. […] Red fluorescence resulting from reduction of alamar blue was detected on a Victor3 platereader. […] (e) The number of viable cells was quantified under each condition using a hemacytometer. […] BJ-TERT/LT/ST/RAS^V12 (shown in histogram plots, and in line graph as dark diamonds) or BJ-TERT cells (shown in line graph only, light circles) were treated with 4.6-μM erastin A1 and the level of intracellular oxidative species determined. […]
compound,measurement,setting,value
CC[C@@]1(O)C(=O)OCc2c1cc1n(c2=O)Cc2cc3ccccc3nc2-1 [camptothecin],PARP1 cleavage,[1],degraded
same,"fragmented nuclei, of total nuclei",[2]; Hoechst 33342,10%-20%
same,nuclear morphology,[2]; fluorescence microscopy,karyorhexis and margination of chromatin were visible
same,percentage of cells in the M1 region (Annexin V staining),[3],38%
COc1cc([C@@H]2c3cc4c(cc3[C@H](O)[C@H]3COC(=O)[C@H]23)OCO4)cc(OC)c1OC [podophyllotoxin],change in sensitivity/potency after upregulation of VDAC proteins by nucleofection,[4],did not change the potency
CN[C@@H]1C[C@H]2O[C@@](C)([C@@H]1OC)n1c3ccccc3c3c4c(c5c6ccccc6n2c5c31)C(=O)NC4 [staurosporine],cytochrome c release from mitochondria,[5],released from mitochondria
